We go through 15 compounds from PubChem BioAssay (NCI).

Several values for one entry are separate records, joined by “and”; a condition that tells them apart may be missing. Equal values may be shown once.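 All cell lines were grown in 96-well plates and treated with compound for 48 hours. GI50 = concentration required for 50% inhibition of growth. TGI is the concentration that stops growth completely.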

Some test systems named below: HOP-62 NSCLC; OVCAR-8 ovarian; OVCAR-4 ovarian; IGROV1 ovarian; SK-MEL-5 melanoma; EKVX NSCLC; SK-MEL-28 melanoma; CCRF-CEM leukemia; HCT-15 colon.
What all share (assay): NCI anticancer screen, dose series, 48 h

Take `C/C(NNC(=O)c1ccccc1O)=C1\C=Nc2ccccc2S1`: the TGI in the assay on HOP-62 NSCLC, in the assay with OVCAR-8 ovarian, in the assay on OVCAR-4 ovarian, with IGROV1 ovarian, in the assay with SK-MEL-5 melanoma and in the assay on EKVX NSCLC was over 100 µM in each case. The TGI with SK-MEL-28 melanoma and with CCRF-CEM leukemia was over 100 µM in each case.

On to `COC(=O)C(=O)C(CC(=O)Nc1cc(Cl)ccc1Cl)C(=O)OC` (stereo not given), for which the TGI in the assay on HOP-62 NSCLC, in the assay on OVCAR-8 ovarian, with OVCAR-4 ovarian, in the assay with IGROV1 ovarian, with SK-MEL-5 melanoma and in the assay with HCT-15 colon was over 100 µM each time. Further, the TGI with EKVX NSCLC, with SK-MEL-28 melanoma and in the assay on CCRF-CEM leukemia was over 100 µM in each case.

Take `C#CCN(N=O)C(=O)NC(CCCCNC(=O)OCc1ccccc1)C(=O)OCc1ccccc1` (stereo not given): the TGI with HOP-62 NSCLC is over 100 µM; in the assay on OVCAR-8 ovarian, 38.9 µM; in the assay with OVCAR-4 ovarian, 72.8 µM; in the assay on IGROV1 ovarian, over 100 µM; with HCT-15 colon, 47.2 µM; with EKVX NSCLC, 55.3 µM. The TGI was 77.6 µM with SK-MEL-28 melanoma and 41.8 µM in the assay with CCRF-CEM leukemia.

Consider `CCOC(=O)c1oc2c(OC)ccc3c2c1CCC3`, for which the TGI with HOP-62 NSCLC, with OVCAR-8 ovarian, in the assay on OVCAR-4 ovarian, in the assay on IGROV1 ovarian, in the assay on SK-MEL-5 melanoma and in the assay on HCT-15 colon was over 100 µM in each case. In addition, the TGI in the assay on EKVX NSCLC, in the assay on SK-MEL-28 melanoma and in the assay on CCRF-CEM leukemia was over 100 µM in each case.

Take `NC(Cc1ccccc1)C(=O)OCN1C(=O)C2C3C=CC(C2C1=O)C1C2C(=O)N(COC(=O)C(N)Cc4ccccc4)C(=O)C2C31` (stereo not given): the TGI was over 100 µM in the assay on HOP-62 NSCLC; 54.1 µM and 43.7 µM in the assay on OVCAR-8 ovarian; 34 µM and 44.5 µM with OVCAR-4 ovarian; > 100 µM and 70.7 µM in the assay on IGROV1 ovarian; 34.4 µM and 32.9 µM in the assay on SK-MEL-5 melanoma; 35.2 µM and 35.3 µM in the assay on HCT-15 colon. Also, the TGI in the assay with EKVX NSCLC is over 100 µM; in the assay on SK-MEL-28 melanoma, 44.4 µM and 36 µM; with CCRF-CEM leukemia, 50.3 µM and > 100 µM.

As to `CCc1cccc(C(C)C)c1NC(=O)CC1Sc2ccccc2NC1=O` (stereo not given), the TGI with HOP-62 NSCLC, with OVCAR-8 ovarian, in the assay on OVCAR-4 ovarian, in the assay with IGROV1 ovarian, in the assay on SK-MEL-5 melanoma and in the assay with HCT-15 colon was over 100 µM each time. Moreover, the TGI in the assay with EKVX NSCLC, in the assay with SK-MEL-28 melanoma and in the assay on CCRF-CEM leukemia was over 100 µM throughout.

`O=C1NC(=O)C(C(=O)C(=O)Nc2cc(Cl)ccc2Cl)C(=O)N1`: the TGI with HOP-62 NSCLC, with OVCAR-8 ovarian, in the assay with OVCAR-4 ovarian, in the assay with IGROV1 ovarian, with SK-MEL-5 melanoma and in the assay with HCT-15 colon was over 100 µM in each case. Moreover, the TGI with EKVX NSCLC, in the assay with SK-MEL-28 melanoma and with CCRF-CEM leukemia was over 100 µM each time.

In the case of `O=C1c2c(O)cccc2C(C(=O)CCCCCC(=O)C2c3cccc(O)c3C(=O)c3c(O)cccc32)c2cccc(O)c21`, the GI50 in the assay on HOP-62 NSCLC is 5.45 µM; with OVCAR-8 ovarian, 6.8 µM; with OVCAR-4 ovarian, 5.17 µM; with IGROV1 ovarian, 12.5 µM; in the assay on SK-MEL-5 melanoma, 7.96 µM; in the assay with HCT-15 colon, 7.25 µM. Besides, the GI50 was 5.64 µM with EKVX NSCLC, 7.4 µM in the assay with SK-MEL-28 melanoma and 2.05 µM with CCRF-CEM leukemia. In addition, the TGI with HOP-62 NSCLC was 6.96 µM and 16.9 µM; with OVCAR-8 ovarian, 8.5 µM and 15.6 µM; in the assay with OVCAR-4 ovarian it was 4.61 µM and 11 µM; with IGROV1 ovarian it was 6.13 µM and 28.6 µM; with HCT-15 colon it was 5.44 µM and 14.4 µM; in the assay with EKVX NSCLC, 3.68 µM and 19.5 µM. Besides, the TGI in the assay on SK-MEL-28 melanoma is 4.63 µM and 14.8 µM; in the assay with CCRF-CEM leukemia, 25 µM and 13.6 µM.

As for `CCCCCCCCSC(=O)NCCCC`, the TGI in the assay with OVCAR-8 ovarian is over 100 µM; with OVCAR-4 ovarian it was over 100 µM; in the assay with IGROV1 ovarian, over 100 µM; in the assay on SK-MEL-5 melanoma it was 46.6 µM; in the assay on HCT-15 colon, 96.8 µM; in the assay with EKVX NSCLC, 75.4 µM. The results for the TGI in the assay with SK-MEL-28 melanoma and in the assay on CCRF-CEM leukemia were 88.7 µM and over 100 µM, respectively.

Turning to `CC(Oc1cc2oc(=O)cc(-c3ccccc3)c2cc1Cl)C(=O)O` (stereo not given), the TGI with HOP-62 NSCLC, with OVCAR-8 ovarian, in the assay with OVCAR-4 ovarian, in the assay on IGROV1 ovarian, in the assay with SK-MEL-5 melanoma and in the assay on EKVX NSCLC was over 100 µM throughout. The TGI with SK-MEL-28 melanoma and in the assay with CCRF-CEM leukemia was over 100 µM each time.

For the compound `O/N=C1/CCCC/C1=C/C=C/c1ccccc1`, the TGI with OVCAR-8 ovarian is over 100 µM; with OVCAR-4 ovarian, over 100 µM; in the assay with IGROV1 ovarian, 36.8 µM; in the assay on SK-MEL-5 melanoma, 30.2 µM; with HCT-15 colon, 36.2 µM; in the assay on SK-MEL-28 melanoma, 10.2 µM. The compound further came in with a TGI in the assay on CCRF-CEM leukemia of 67 µM.

For the compound `CC(=O)OCCOCn1c2ccccc2c2c3c(c4c5ccccc5n(COCCOC(C)=O)c4c21)C(=O)N(Cc1ccccc1)C3=O`, the TGI in the assay on HOP-62 NSCLC, with OVCAR-8 ovarian, in the assay with OVCAR-4 ovarian, in the assay with IGROV1 ovarian, in the assay on SK-MEL-5 melanoma and in the assay with HCT-15 colon was over 100 µM in each case. For the same compound, the TGI with EKVX NSCLC, in the assay on SK-MEL-28 melanoma and in the assay on CCRF-CEM leukemia was over 100 µM each time.

With `NCCOc1ccc(/C(=C(/Cl)c2ccccc2)c2ccccc2)cc1`, the TGI with HOP-62 NSCLC turned out to be 32.7 µM; in the assay on OVCAR-8 ovarian it was 29.6 µM; in the assay with OVCAR-4 ovarian it was 28.7 µM; in the assay with IGROV1 ovarian, 29.9 µM; in the assay on SK-MEL-5 melanoma, 22.3 µM; in the assay with HCT-15 colon, 19.1 µM. Besides, the TGI with EKVX NSCLC stood at 30.1 µM; with SK-MEL-28 melanoma, 18.6 µM; with CCRF-CEM leukemia, 24.6 µM.

For `CCCCC(C(=O)C(=O)Nc1ccc(C)cc1C)C(=O)C(C)C` (stereo not given), the TGI with HOP-62 NSCLC, in the assay with OVCAR-8 ovarian, with OVCAR-4 ovarian, in the assay on IGROV1 ovarian, in the assay on SK-MEL-5 melanoma and in the assay with HCT-15 colon was over 100 µM in each case. Further, the TGI with EKVX NSCLC and in the assay on SK-MEL-28 melanoma was over 100 µM throughout.

As to `CC(=O)Nc1ccccc1-c1nc2ccccc2nc1-c1ccccc1`, the TGI in the assay with HOP-62 NSCLC, in the assay with OVCAR-8 ovarian, with OVCAR-4 ovarian, in the assay on IGROV1 ovarian, in the assay with HCT-15 colon and with EKVX NSCLC was over 100 µM throughout. In addition, the TGI in the assay on SK-MEL-28 melanoma and in the assay with CCRF-CEM leukemia was over 100 µM in each case.
